Each block holds one compound with its values, some of them ahead of it.
Legend:
MET [1] = biological target: T1, MET (Homo sapiens, UniProt P08581); assay: MET shedding ELISA (sMET-ECD release) in A549 cells; assay type: cell-based; set-up: cell lines expressing wild-type MET such as A549 cells; endogenous in cells; host or cells: A549; conditions: 24 hrs, 1 nM of antibody, FIG. 12A
U87MG tumor cells = assay: U87MG orthotopic mouse model (bioluminescence); assay type: in vivo; conditions: 25 mg/kg; compared with control chimeric IgG1 anti-KLH antibody
Method: The ability of the anti-MET antibodies to inhibit tumor growth in vivo is assessed as described in Sections 6.2.1.3, 6.2.1.4, and 6.2.1.5. […] Treatment was performed biweekly, every three to four days, for seven weeks.

[2] = system: MET, AKT and MAPK phosphorylation; assay: Akt and MAPK phosphorylation analysis by western blot in A549 cells; assay type: cell-based, human; conditions: HGF treatment
Method: Western blots were generated from total protein separated on a 10% SDS-PAGE gel. Resolved protein was transferred to nitrocellulose (Bio-Rad), blocked for 1 h with 5% skim milk at 25° C., and then incubated with the indicated antibody overnight at 4° C. The anti-pAkt antibody, anti-pMAPK antibody (Cell Signaling cat. No. 9271 and Cell Signaling cat. No. 4370, respectively), and anti-1234/1235 MET XP antibody (Cell Signaling cat. No. 3077) were used at a concentration of 1 μg/mL in 5% skim milk. Secondary mouse and rabbit antibodies (GE Healthcare) were used at a 1:5000 dilution for 1 h at 25° C. SuperSignal® West Picto Chemiluminescent HRP Substrate (Thermo Scientific cat. No. 34078) was used as directed.

MET [3] = biological target: T2, MET (Homo sapiens, UniProt P08581, DEL964-1010); assay: MET degradation in H596 cells (exon 14 deleted MET); assay type: cell-based; conditions: 1 nM HGF, 24 hrs
T2 construct: In a non-small-cell lung cancer cell line H596, a functional MET protein is expressed without the 47 amino acids encoded by exon 14; endogenous in cells; host or cells: H596 (NSCLC / adenosquamous carcinoma)
Excerpt: (§1) MET exon 14 mutations have been reported in many cancers (The Cancer Genome Atlas Research Network, 2014, Nature, 511(7511):543-550; Frampton et al., 2015, Cancer Discov. 5(8):850-859). MET exon 14 mutations confer reduced HGF-induced receptor degradation. Deletion of exon 14 (Leu964-Asp1010) removes the Tyr1003 site necessary for Cbl binding leading to a substantial decrease HGF-induced receptor degradation as previously reported (Kong-Beltram et al., 2006, Cancer Res. 66(1):283-289). […] In a non-small-cell lung cancer cell line H596, a functional MET protein is expressed without the 47 amino acids encoded by exon 14 (Kong-Beltram et al., 2006, Cancer Res. 66(1):283-289).

MET [4] = biological target: T1, MET; assay: HGF-induced MET degradation in A549 cells; assay type: cell-based; set-up: cell lines expressing wild-type MET such as A549 and U87MG cells; endogenous in cells; host or cells: A549; conditions: A549 cells (wild-type MET)
Excerpt: as §1

MET [5] = biological target: T1, MET; assay: HGF-induced MET degradation in U87MG cells; assay type: cell-based; conditions: U87MG cells (wild-type MET)
Excerpt: as §1

MET [6] = biological target: T1, MET; assay: MET ubiquitination in A549 cells (immunoprecipitation/immunoblot); assay type: cell-based; set-up: cell lines expressing wild-type MET such as A549 and U87MG cells; endogenous in cells; host or cells: A549; conditions: 1 nM, 15 min, FIG. 12B
Excerpt: Whether the anti-MET antibodies promote MET ubiquitination and degradation was investigated next. […] Cell lysates were precipitated with anti-ubiquitin antibody conjugated agarose (Santa Cruz) followed by immunoblotting with anti-MET antibody (Cell Signaling Technology). […] Thus, these antibodies promote receptor degradation utilizing the ubiquitination mechanism instead of protease-mediated shedding. This is in contrast with membrane protease-mediated receptor shedding observed previously with antibodies such as DN30 (Schleter, 2010, J. Biol. Chem. 285(34):26335-26340).

Compound: CCCCCCCCCCCCCC(=O)O[C@@H]1[C@@H](C)[C@@]2(O)[C@@H](C=C(CO)C[C@]3(O)C(=O)C(C)=C[C@@H]23)[C@@H]2C(C)(C)[C@]12OC(C)=O [PMA, phorbol 12-myristate 13-acetate]
MET shedding (release of sMET-ECD into culture medium) (MET [1]): induced substantial MET shedding

Compound: C[C@@H](Oc1cc(-c2cnn(C3CCNCC3)c2)cnc1N)c1c(Cl)ccc(F)c1Cl [crizotinib]
tumor growth (bioluminescence) (U87MG tumor cells): resulted in similar tumor growth
MET protein levels, western blot [2]: not observed
activation of MET (phosphorylated MET), western blot [2]: inhibited activation of MET
activation of downstream signaling components Akt and MAPK (phosphorylation), western blot [2]: reduces the activation of downstream signaling components Akt and MAPK

receptor degradation (MET [3]): 30%
receptor degradation (MET [4]): approximately 80%
receptor degradation (MET [5]): approximately 80%
MET receptor ubiquitination (MET [6]): induced potent receptor ubiquitination
Compound: HGF: MET ligand used to stimulate cells
